Measurements taken from patent US20090281049A1, “New use of ginsenoside compound-k in manufacturing medicaments” (priority 2006, published 2009).

Assays:
[1] = test system: carrageenan-induced acute inflammation in mice; assay: Carrageenan-induced paw edema in mice; format: in vivo, Kunming mice
[2] = test system: Collagen Type II (CII) induced arthritis in rats; assay: Treatment effect on Collagen Type II (CII) induced arthritis in rats; format: in vivo, Rat, SD strain
Protocol: Inflammation-induced agent: Collagen Type II was dissolved in 0.1 mol/L acetic acid to make final concentration be 2 mg/ml collagen solution, and held in 4° C. overnight. The Collagen Type II solution was added to cold Freund's Adjuvant Incomplete by drops (Collagen Type II: Freund's Adjuvant Incomplete=1:1) on the next day, emulsified completely (Type II Collagen solution: Freund's Adjuvant Incomplete=1:1), and the final concentration of Collagen Type II was 1 mg/ml. The Collagen Type II emulsion was reserved in a refrigerator at 4° C.
Immune method: Each rat was immunized by being injected subcutaneously at 5 points on the back with 0.1 ml emulsion in each point, total of […] (contained 0.5 mg Collagen Type II), and immunized again in the same way 7 days later. An emulsion of 0.1 mol/L acetic acid and Freund's Adjuvant Incomplete was injected in control group. The swell values of the arthrosis in right hind ankle and foot were measured respectively by using a hydroplethismometer before injection and 20 days after immunization.
Collagen Type II (CII) and Freund's Adjuvant Incomplete were ground into emulsion and were injected subcutaneously into the back of the rats for immunization. Until the 19th day, most parts of the pedal joint of the rats began to swell. Picked 40 rats out which were with swelled pedal joint and divided them into […] subsequently, i.e. 8 rats in each group. They are respectively […]: Ginsenoside Compound-K, 10 mg/kg, iv, medium dose group: Ginsenoside Compound-K, 5 mg/kg, iv, small dose group: Ginsenoside Compound-K, 2.5 mg/kg, iv, Enbrel group: 9 mg/kg, sc, Tripterygium Wilfordii Hook group: 1.5 mg/kg, po. and blank control group: physiological saline 10 mg/kg, iv. The rats were administered for 8 days consecutively. The swell value of the foot was measured respectively by using hydroplethismometer before inflammation induced and at different time after the onset of symptoms, then calculated swell rate and prohibition rate, and compared the differences among groups with t test.

## CC(C)=CCC[C@](C)(O[C@@H]1O[C@H](CO)[C@@H](O)[C@H](O)[C@H]1O)[C@H]1CC[C@]2(C)[C@@H]1[C@H](O)C[C@@H]1[C@@]3(C)CC[C@H](O)C(C)(C)[C@@H]3CC[C@]12C [Ginsenoside Compound-K, ginsenoside Compound-K]
[1]; 2.5 mg/kg iv, 0 h
  swell value: 1.49 ± 0.15 mL
[1]; 2.5 mg/kg iv, 1 h
  inhibition rate: <14.70> %
  swell rate: (66.63 ± 7.82) %
  swell value: 2.36 ± 0.22 mL
[1]; 2.5 mg/kg iv, 2 h
  inhibition rate: <12.30> %
  swell rate: (64.26 ± 14.54) %
  swell value: 2.43 ± 0.23 mL
[1]; 2.5 mg/kg iv, 4 h
  inhibition rate: <29.40> %
  swell rate: (61.75 ± 11.27) %
  swell value: 2.33 ± 0.17 mL
[1]; 2.5 mg/kg iv, 6 h
  inhibition rate: <31.64> %
  swell rate: (53.48 ± 11.12) %
  swell value: 2.22 ± 0.15 mL
[1]; 5 mg/kg iv, 0 h
  swell value: 1.47 ± 0.13 mL
[1]; 5 mg/kg iv, 1 h
  inhibition rate: <11.33> %
  swell rate: (60.97 ± 18.09) %
  swell value: 2.36 ± 0.23 mL
[1]; 5 mg/kg iv, 2 h
  inhibition rate: <16.08> %
  swell rate: (60.97 ± 18.41) %
  swell value: 2.35 ± 0.16 mL
[1]; 5 mg/kg iv, 4 h
  inhibition rate: <44.03> %
  swell rate: (45.04 ± 18.30) %
  swell value: 2.12 ± 0.22 mL
[1]; 5 mg/kg iv, 6 h
  inhibition rate: <31.98> %
  swell rate: (49.81 ± 17.26) %
  swell value: 2.19 ± 0.19 mL
[1]; 10 mg/kg iv, 0 h
  swell value: 1.56 ± 0.17 mL
[1]; 10 mg/kg iv, 1 h
  inhibition rate: <40.64> %
  swell rate: (40.81 ± 10.14) %
  swell value: 2.18 ± 0.18 mL
[1]; 10 mg/kg iv, 2 h
  inhibition rate: <42.79> %
  swell rate: (41.56 ± 13.38) %
  swell value: 2.19 ± 0.20 mL
[1]; 10 mg/kg iv, 4 h
  inhibition rate: <65.66> %
  swell rate: (27.64 ± 8.46) %
  swell value: 1.98 ± 0.20 mL
[1]; 10 mg/kg iv, 6 h
  inhibition rate: <67.80> %
  swell rate: (23.58 ± 15.23) %
  swell value: 1.91 ± 0.22 mL
[1]; mice, 10, 5, 2.5 mg/kg iv
  overall effect on carrageenan-induced acute inflammation: able to inhibit carrageenan-induced acute inflammation in mice obviously
[2]; 2.5 mg/kg iv, 0 day
  swell value: 1.03 ± 0.05 mL
[2]; 2.5 mg/kg iv, 20 day
  inhibition rate: <18.95> %
  swell rate: (43.79 ± 12.08%
  swell value: 1.48 ± 0.11 mL
[2]; 2.5 mg/kg iv, 22 day
  inhibition rate: <19.94> %
  swell rate: (48.22 ± 10.27) %
  swell value: 1.53 ± 0.06 mL
[2]; 2.5 mg/kg iv, 23 day
  inhibition rate: <17.70> %
  swell rate: (51.23 ± 9.82) %
  swell value: 1.56 ± 0.06 mL
[2]; 2.5 mg/kg iv, 25 day
  inhibition rate: <16.26> %
  swell rate: (51.66 ± 18.36) %
  swell value: 1.56 ± 0.16 mL
[2]; 2.5 mg/kg iv, 28 day
  inhibition rate: <20.52> %
  swell rate: (41.04 ± 10.92) %
  swell value: 1.45 ± 0.10 mL
[2]; 2.5 mg/kg iv, 31 day
  inhibition rate: <22.73> %
  swell rate: (37.86 ± 11.18) %
  swell value: 1.42 ± 0.10 mL
[2]; 5 mg/kg iv, 0 day
  swell value: 1.03 ± 0.05 mL
[2]; 5 mg/kg iv, 20 day
  inhibition rate: <9.35> %
  swell rate: (48.97 ± 27.82%
  swell value: 1.52 ± 0.21 mL
[2]; 5 mg/kg iv, 22 day
  inhibition rate: <12.39> %
  swell rate: (52.77 ± 21.55) %
  swell value: 1.56 ± 0.15 mL
[2]; 5 mg/kg iv, 23 day
  inhibition rate: <13.87> %
  swell rate: (53.62 ± 14.27) %
  swell value: 1.58 ± 0.13 mL
[2]; 5 mg/kg iv, 25 day
  inhibition rate: <15.62> %
  swell rate: (52.06 ± 18.56) %
  swell value: 1.56 ± 0.19 mL
[2]; 5 mg/kg iv, 28 day
  inhibition rate: <13.17> %
  swell rate: (44.84 ± 25.91) %
  swell value: 1.49 ± 0.28 mL
[2]; 5 mg/kg iv, 31 day
  inhibition rate: <15.64> %
  swell rate: (41.34 ± 13.83) %
  swell value: 1.45 ± 0.13 mL
[2]; 10 mg/kg iv, 0 day
  swell value: 1.04 ± 0.19 mL
[2]; 10 mg/kg iv, 20 day
  inhibition rate: <12.61> %
  swell rate: (47.22 ± 18.60) %
  swell value: <1.52 ± 0.19 mL
[2]; 10 mg/kg iv, 22 day
  inhibition rate: <16.28> %
  swell rate: (50.43 ± 9.45) %
  swell value: 1.54 ± 0.12 mL
[2]; 10 mg/kg iv, 23 day
  inhibition rate: <19.28> %
  swell rate: (50.25 ± 22.06) %
  swell value: 1.54 ± 0.10 mL
[2]; 10 mg/kg iv, 25 day
  inhibition rate: <17.95> %
  swell rate: (50.62 ± 21.43) %
  swell value: 1.54 ± 0.12 mL
[2]; 10 mg/kg iv, 28 day
  inhibition rate: <22.09> %
  swell rate: (40.23 ± 16.26) %
  swell value: 1.44 ± 0.13 mL
[2]; 10 mg/kg iv, 31 day
  inhibition rate: <27.67> %
  swell rate: (35.44 ± 22.50) %
  swell value: 1.38 ± 0.11 mL
[2]; rats, 10, 5, 2.5 mg/kg iv for 8 days
  overall treatment effect on Collagen Type II induced arthritis: able to cure Collagen Type II induced arthritis
